Measured values from patent US9801885B2, “Transvaginal phosphodiesterase inhibitors for infertility treatment” (PROKREA BCN, S.L., priority 2011, dated 2017).
“Also recorded” adds a separate entry of the source.

Key:
[1] = test system: sperm of a semen sample from a patient with asthenozoospermia; test: In vitro assay of the effect of phosphodiesterase inhibitors on sperm motility; format: cell-based, human; parameters: key to Increase in sperm speed: the symbol ++ denotes a very significant increase in sperm motility; settings: vs untreated sample; for Increase in sperm type A + B: mixed 1:1 with semen; for Increase in sperm speed: subjective rating, all sperm types
Description: In each case the corresponding phosphodiesterase inhibitor (rolipram, milrinone, ibudilast and pentoxifylline) was dissolved in a commercial medium suitable for performing sperm preparations (SpermRinse®) to the desired concentration. […] A semen sample was taken from a patient with asthenozoospermia and it was kept at room temperature for 5 minutes after liquefaction, it was mixed with SpermRinse® solution without phosphodiesterase inhibitor in a volumetric ratio of 1:1. Another part of the semen was mixed also after liquefaction with the SpermRinse® solution containing the phosphodiesterase inhibitor also in a proportion of 1:1 by volume. For each observation, 3 microdrops of the preparation were used, they were placed under an optical microscope with 20× objective and Makler camera. A sperm count was performed, the number of type A sperm (advancing rapidly, with rectilinear trajectory) and type B sperm (advancing rapidly, with curvilinear trajectory) of each sample being counted. This was performed for the untreated sample and for the samples treated with the phosphodiesterase inhibitor. Three readings were made for each sample and the mean value was calculated. Likewise, a subjective observation of the increase of sperm speed of all the sperm types was also performed for the samples treated with the phosphodiesterase inhibitor, with respect to the untreated samples.

[2] = test system: infertile men with asthenozoospermia; settings: 1200 mg daily for four months, cited from earlier work
couples with infertility = test: Assay of the effectiveness of intravaginal pentoxifylline in the treatment of couples with infertility; format: in vivo, human
Description: The most fertile days were determined by cervical mucus test, vaginal ultrasound, or ovulation test. An ovulation inducer, clomiphene or purified human gonadotrofin, irrespectively, was simultaneously administered to 6 of the couples. The gel was administered in 3 different cycles or in several days of the same cycle. A meeting was conducted with the patients between 15 and 20 hours after each administration and a microscopic examination of the endocervical exudate was performed.

[3] = microscopic examination 15 to 20 hours after transvaginal administration

Compound	Increase in sperm type A + B ([1]; 1 μM in SpermRinse)	Increase in sperm speed ([1]; 1 μM)	pregnancies counted after oral treatment ([2]; 15 infertile men)	pregnancy percentage after oral treatment ([2]; 15 infertile men) [%]	sperm motility of the subjects treated ([2]; oral)	pregnancies achieved (couples with infertility; among 20 couples, transvaginal gel of Example 2)	cervical mucus characteristics (filancia, transparency, leukocytic diathesis) (couples with infertility; [3])	type A sperm (WHO classification) counted in cervical exudate (couples with infertility; [3])	sperm quality in terms of motility in cervical exudate (couples with infertility; microscopic examination 15 to 20 hours after transvaginal administration, asthenozoospermia and normospermia)	side effects due to the treatment (couples with infertility; transvaginal administration in women)	pregnancy percentage (effectiveness) (couples with infertility; transvaginal, three single-doses of 10 g gel of Example 2 (4% pentoxifylline), after coitus, 20 couples) [%]	Increase in sperm type A + B ([1]; 100 μM in SpermRinse)	Increase in sperm speed ([1]; 100 μM)
Cc1[nH]c(=O)c(C#N)cc1-c1ccncc1 [Milrinone, 1,6-dihydro-2-methyl-6-oxo-(3,4′-bipyridine)-5-carbonitrile]	++ (the symbol ++ indicates an increase greater than 40% in the A+B sperm type count)	++	–	–	–	–	–	–	–	–	–	–	–
CC(=O)CCCCn1c(=O)c2c(ncn2C)n(C)c1=O [Pentoxifylline, 3,7-dihydro-3,7-dimethyl-1-(5-oxohexyl)-1H-purine-2,6-dione]	++ (the symbol ++ indicates an increase greater than 40% in the A+B sperm type count)	++	2	13.3	substantial improvement in sperm motility	4	maintains and even improves the characteristics of cervical mucus; also recorded: improvement in the characteristics of cervical mucus	significant number of type A sperm	improvement in sperm quality in terms of motility	not observed in any case; also recorded: does not cause any type of allergy or side effect	20	–	–
CC(C)C(=O)c1c(C(C)C)nn2ccccc12 [Ibudilast, 2-methyl-1-(2-(1-methyethyl)pyrazolo(1,5-a)pyridin-3-yl)-1-propanone]	–	–	–	–	–	–	–	–	–	–	–	++ (the symbol ++ indicates an increase greater than 40% in the A+B sperm type count)	++
